Laboratory results published in patent US11147816B2, “Composition for inducing differentiation and protection of neural stem cells and method for inducing neuro-regeneration using the same composition” (GENUV Inc., priority 2016, dated 2021).

Legend:
Aβ(1-40) and Aβ(1-42) = assay: ELISA of Aβ(1-40) and Aβ(1-42) in brain hemispheres (Example 13); format: in vivo, mouse; settings: orally daily for 28 days, vs vehicle
Protocol: Using the ground powder of 5XFAD mouse brain hemispheres obtained in Example 12, the amount of Aβ(1-40) and Aβ(1-42) was quantified by ELISA (enzyme-linked immunosorbent assay). […] After measuring the protein concentration, dilution buffer was added to obtain 30˜50 μg of protein in 100 μl solution. 100 μl each of anti-Aβ(1-40) and Aβ(1-42) antibodies were added to the 96-well plates, incubated at room temperature for 2 hours, then removed and washed 4 times with wash buffer. 100 μl each of HRP-conjugated secondary antibodies was added and incubated at room temperature for 30 minutes. The solution was then removed and washed again 4 times with wash buffer. 100 μl of the […] was added to the wells, incubated in the dark for 30 minutes, and 100 μl of the stop solution added to terminate the reaction. Then, the chemiluminiscence reaction was measured at 450 nm with an ELISA plate reader. The absorbance was converted in reference to the standard concentration and the concentration of each protein was determined. The amount of Aβ(1-40) and Aβ(1-42) in reference to the total amount of protein (30˜50 μg) was calculated, and then the amount of Aβ(1-42) in reference to the amount of Aβ(1-40) was calculated.

[1] = system: mouse adult neural stem cells; settings: trametinib 10 nM, 100 nM, memantine 5 μM, 10 μM, 4 days
Protocol: NSC were isolated from the subventricular zone of week 8 mouse brain, treated with 20 ng/ml human basic fibroblast growth factor (bFGF) and 20 ng/ml human epidermal growth factor (EGF) in an IPM medium, and cultured as a suspension in 24-well plates for 7 days.
Two days before the isolation of single cells, 6-well plates were prepared by treating the wells with 10 μg/ml poly-L-ornithine solution and incubating overnight at room temperature for coating. The next day, poly-L-ornithine solution was removed and the plates were washed 3 times with sterilized triple distilled water. […] The culture solution used is N2 culture medium (supplemented with 20 ng/ml bFGF and 20 ng/ml EGF). Right before seeding, the coating solution was suctioned out, and the single cells were uniformly seeded into the culture plate before the plate dried up. Cells were allowed to attach to the plates for about one minute, and after checking that cells were sufficiently attached, an additional 1.5 ml of culture medium (N2 culture medium with 20 ng/ml bFGF and 20 ng/ml EGF) was added to the cells and cultured in a 37° C. incubator for 24 hours.
Wells not treated with amyloid-beta were left to use as negative controls.
Gibco's (Waltham, Mass.) human Aβ (1-42) was purchased to use for the amyloid-beta (Aβ), and the following process was followed to create oligomers. First, amyloid-beta was dissolved in 100% HFIP (1,1,1,3,3,3-hexafluoro-2-propanol) (Sigma, cat#.105228) to obtain a concentration of 1 mg/ml and vortexed at room temperature for 1 hour. Then, it was dried for 10 minutes in a speed Vac, after which DMSO (Sigma, cat#.D2650) was added to bring the concentration to 5 mM and then lightly vortexed at room temperature for 10 minutes. […] The solution was incubated at 4° C. for 24 hours and then added into the cultured cells.
The NCSs were cultured with the daily addition of EGF, bFGF, amyloid-beta, and test materials for 4 days.

[2] = system: mouse embryonic neural stem cells; assay: Immunocytochemistry analysis, Tuj1 and DAPI staining (Example 3); format: cell-based; settings: 10 nM, 4 days
Protocol: Tuj1 (Neuron specific class III beta-tubulin) is a neuron specific marker protein, which was conjugated to rhodamine to show fluorescent red, while DAPI binds to the cell DNA and stains the cell nuclei fluorescent blue. […] The medium was removed and the cells were washed with PBS. After fixing with 10% formaldehyde (Sigma cat#. HT501128) at room temperature for 10 minutes, they were washed again with PBS. They were permeabilized with 0.2% Triton X-100 (Sigma, cat#. 93443) at room temperature for 15 minutes, washed with PBS, and incubated with 10% BSA (Sigma, cat#. A2153)+1% normal goat serum (Vector lab, Burlingame, Calif., cat#. S1000) at room temperature for 1 hour. […] The solution was removed, washed with PBS, and incubated at room temperature for 1 hour with the secondary antibody (rhodamine-conjugated antibody) diluted in 1% BSA+1% normal goat serum at a ratio of 1:200. Then, the cells were washed with PBS, incubated with 5 μg/ml DAPI (Sigma, cat#. D9542) for 5 minutes, washed with PBS again, and mounted on a slide glass for analysis with a fluorescent microscope.

5XFAD mouse [3] = assay: Nissl, NeuN and DCX staining in the hippocampal dentate gyrus (Example 9-2); format: in vivo; settings: orally daily for 28 days
Protocol: After placing in 0.1% cresyl violet (Sigma, cat#. C5042) solution at room temperature for 15 minutes, they were dehydrated by sequentially immersing in 80%, 90%, 100% alcohol, and xylene. Coverslips were put on the slides and the neurons examined.
NeuN staining was performed by the same method as described in Example 8 as was DCX staining, but using anti-DCX antibodies (Santa Cruz, cat#. sc271390) instead of anti-NeuN antibodies.

[4] = system: mouse embryonic neural stem cells; assay: qRT-PCR of relative mRNA expression of neuronal markers in mouse embryonic NSC (Examples 4-1, 4-2, 6); format: cell-based; settings: 1 nM
Protocol: Isopropanol (Ducsan, GyunggiDo, Korea, cat#. 67-63-0) was added and mixed for RNA isolation, then centrifuged again to remove the supernatant and obtain the pellet. The RNA pellet was resuspended in 75% ethanol (Ducsan, cat#. 64-17-15), centrifuged, and the supernatant removed. The pellet was then resuspended in sterilized triple distilled water to obtain the mRNA, incubated for 10 minutes at 55° C., and stored at −80° C.
Sterilized triple distilled water, […] oligo dT, and 1 mM dNTP were added to the RNA and incubated for 5 minutes at 65° C. This was followed by the addition of 5X First-strand buffer, 10 mM DTT, and M-MLV reverse transcriptase and incubated at 42° C. for 1 hour, then at 72° C. for 15 minutes, and at 4° C. for 30 minutes. The synthesized cDNA was stored at −20° C.
The term relative mRNA expression level signifies that in order to normalize each group's total RNA level, the mRNA expression level of each differentiation marker is divided by the expression level of GAPDH whose expression level is fairly constant across cells, and then the values of each test material are compared with those of the controls (undifferentiated NSC) in each group.

5XFAD mouse [5] = assay: TUNEL assay, neuroprotective activity (Example 10); format: in vivo; settings: orally daily for 28 days, vs vehicle
Protocol: The sagittal brain tissue slides described in Example 8 were rehydrated and stained with the TUNEL assay kit (Promega, Wis., USA, cat#. G3250). Specifically, the brain tissue slides were permeabilized with 20 μg/ml proteinase K solution for 10 minutes, incubated with equilibration buffer for 10 minutes, and then incubated with TdT solution at 37° C. for 1 hour. The staining of the somatosensory cortex and subiculum area, areas known to show significant cell death in 5XFAD mouse, were observed. TUNEL assay was also performed on the tissue slides of normal adult mouse brain (as control) to confirm that staining was properly done.

[6] = 10 nM, 25 nM, 100 nM for 2 days

CC(=O)Nc1cccc(-n2c(=O)n(C3CC3)c(=O)c3c(Nc4ccc(I)cc4F)n(C)c(=O)c(C)c32)c1 [trametinib, N-(3-{3-cyclopropyl-5-[(2-fluoro-4-iodophenyl)amino]-6,8-dimethyl-2,4,7-trioxo-3,4,6,7-tetrahydropyrido[4,3-d]pyrimidin-1(2H)-yl}phenyl)acetamide]
amount of Aβ(1-42)/Aβ(1-40) (Aβ(1-40) and Aβ(1-42)): decreased
cell toxicity / cell death (morphology) ([1]; AS703026 10 μM): did not elicit cell toxicity
differentiation of NSC into neurons (morphology) ([1]; with or without 10 μM oligomeric Aβ(1-42)): readily induced the differentiation of NSC into neurons
neuron differentiation by Tuj1 staining [2]: showed increasingly active differentiation activity
immature neurons stained by DCX in the dentate gyrus (5XFAD mouse [3]): seen to be present
number of cells with morphology of Type 2 or Type 3 cells in the subgranular zone of the dentate gyrus (Nissl, NeuN) (5XFAD mouse [3]): increased considerably
differentiation-inducing effect (Tuj1, TH mRNA) [4]: exerted its differentiation-inducing effect
mRNA expression of GABAergic neuron marker Gad1 [4, 6]: increased with the increase in concentration of the trametinib added
mRNA expression of cholinergic neuron marker ChAT [4, 6]: increased with the increase in concentration of the trametinib added
mRNA expression of dopaminergic neuron marker TH [4, 6]: increased with the increase in concentration of the trametinib added
mRNA expression of motor neuron marker Isl1 [4, 6]: increased with the increase in concentration of the trametinib added
number of TUNEL stained cells in the somatosensory cortex and subiculum (5XFAD mouse [5]): significantly lower
